Results on four compounds are retold here after US11459333B2, “Substituted pyrrolo[2,3-d]pyrimidines as JAK inhibitors” (Vimalan Biosciences, Inc., priority 2019, dated 2022).

Holding throughout (format): biochemical
One test concerns the target JAK1 (Homo sapiens (Human), UniProt P23458). Description: JAK/TYK2 Assay (Kinase Glo luminescence), JAK1. To be noted: 7.5 nM enzyme, 2 uM ATP, 30 uM IRS-1, 1 hr. As for the experimental part:
(§1) 10 mM test compound stock or 1 mM control compound stock (tofocitinib, ruxolitinib or staurosporine) in DMSO was diluted to 0.4 mM in DMSO. A 3-fold series dilution was then performed in DMSO to generate 10 different compound concentrations. The assay was carried out in 384-well white plate. 0.5 uL of 40× compound DMSO solution at different concentrations was mixed with 10 uL 2× enzyme prepared in reaction buffer (20 mM HEPES, 10 mM MgCl2, 0.01% Tween, 1 mM DTT, pH 7.5). 10 uL 2× substrate mixture prepared in reaction buffer was then added to start the reaction. A short spin was done to settle down all solutions to the bottom of the plate. Final concentrations of test compound in the reaction mixture were 10000, 3333, 1111, 370, 123, 41.2, 13.7, 4.57, 1.52 and 0.51 nM. Concentrations of control compound were ten times less. Enzymatic reaction was conducted at 25° C. for 1-2 hours. 10 uL of Kinase Glo Reagents was added to stop the reaction and generate the luminescent signal which was measured using Envision. Luminescence signal was inversely related to kinase activity. […] The mixture without any compound was the positive control.
Background: Kinase-Glo reads ATP consumption through a luciferase reaction.

The next test deals with JAK2 (Homo sapiens (Human), UniProt O60674). Description: JAK/TYK2 Assay (Kinase Glo luminescence), JAK2. To be noted: 0.8 nM enzyme, 2 uM ATP, 4 uM pEY, 1 hr. As for the experimental part:
as §1

In another test the target is JAK3 (Homo sapiens (Human), UniProt P52333). The test is described as follows: JAK/TYK2 Assay (Kinase Glo luminescence), JAK3. Particulars: 1.5 nM enzyme, 2 uM ATP, 4 uM pEY, 1 hr. As for the experimental part: as §1
Sequence of JAK3 (P52333 whole entry, species assumed): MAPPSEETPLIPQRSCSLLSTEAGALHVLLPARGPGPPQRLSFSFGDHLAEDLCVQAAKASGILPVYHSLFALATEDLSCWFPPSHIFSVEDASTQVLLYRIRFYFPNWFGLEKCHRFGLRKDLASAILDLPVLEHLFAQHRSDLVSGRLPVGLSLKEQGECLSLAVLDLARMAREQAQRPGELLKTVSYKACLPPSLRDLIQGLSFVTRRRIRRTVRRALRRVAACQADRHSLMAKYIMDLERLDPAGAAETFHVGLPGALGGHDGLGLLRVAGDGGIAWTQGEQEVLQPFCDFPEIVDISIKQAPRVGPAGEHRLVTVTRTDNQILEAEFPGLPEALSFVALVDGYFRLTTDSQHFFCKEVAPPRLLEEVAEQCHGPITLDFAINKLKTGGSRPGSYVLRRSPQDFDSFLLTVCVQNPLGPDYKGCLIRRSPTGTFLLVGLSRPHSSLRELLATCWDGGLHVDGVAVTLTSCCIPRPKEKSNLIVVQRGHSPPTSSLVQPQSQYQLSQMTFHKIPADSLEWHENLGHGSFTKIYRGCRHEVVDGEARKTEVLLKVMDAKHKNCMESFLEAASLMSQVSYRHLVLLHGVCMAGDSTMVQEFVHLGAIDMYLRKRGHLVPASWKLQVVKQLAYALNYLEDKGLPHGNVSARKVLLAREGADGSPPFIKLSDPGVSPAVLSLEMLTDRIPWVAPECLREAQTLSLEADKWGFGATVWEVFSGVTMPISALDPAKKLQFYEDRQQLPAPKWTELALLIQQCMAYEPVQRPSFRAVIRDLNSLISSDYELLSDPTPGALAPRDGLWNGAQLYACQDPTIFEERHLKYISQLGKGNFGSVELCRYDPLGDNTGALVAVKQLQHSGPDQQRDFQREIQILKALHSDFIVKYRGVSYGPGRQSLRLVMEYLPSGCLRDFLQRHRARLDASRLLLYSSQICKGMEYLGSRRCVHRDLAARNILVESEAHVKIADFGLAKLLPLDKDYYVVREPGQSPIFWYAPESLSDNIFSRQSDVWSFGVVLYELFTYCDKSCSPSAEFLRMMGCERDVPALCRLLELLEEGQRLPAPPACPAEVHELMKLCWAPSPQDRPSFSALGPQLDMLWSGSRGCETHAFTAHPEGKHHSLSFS
Another test addresses TYK2 (Homo sapiens (Human), UniProt P29597). The test is described as follows: JAK/TYK2 Assay (Kinase Glo luminescence), TYK2. To be noted: 9 nM enzyme, 2 uM ATP, 30 uM IRS-1, 1 hr. As to the method:
as §1

Bounds are passed on as bounds.

Sequence of JAK1 (P23458 whole entry, species assumed): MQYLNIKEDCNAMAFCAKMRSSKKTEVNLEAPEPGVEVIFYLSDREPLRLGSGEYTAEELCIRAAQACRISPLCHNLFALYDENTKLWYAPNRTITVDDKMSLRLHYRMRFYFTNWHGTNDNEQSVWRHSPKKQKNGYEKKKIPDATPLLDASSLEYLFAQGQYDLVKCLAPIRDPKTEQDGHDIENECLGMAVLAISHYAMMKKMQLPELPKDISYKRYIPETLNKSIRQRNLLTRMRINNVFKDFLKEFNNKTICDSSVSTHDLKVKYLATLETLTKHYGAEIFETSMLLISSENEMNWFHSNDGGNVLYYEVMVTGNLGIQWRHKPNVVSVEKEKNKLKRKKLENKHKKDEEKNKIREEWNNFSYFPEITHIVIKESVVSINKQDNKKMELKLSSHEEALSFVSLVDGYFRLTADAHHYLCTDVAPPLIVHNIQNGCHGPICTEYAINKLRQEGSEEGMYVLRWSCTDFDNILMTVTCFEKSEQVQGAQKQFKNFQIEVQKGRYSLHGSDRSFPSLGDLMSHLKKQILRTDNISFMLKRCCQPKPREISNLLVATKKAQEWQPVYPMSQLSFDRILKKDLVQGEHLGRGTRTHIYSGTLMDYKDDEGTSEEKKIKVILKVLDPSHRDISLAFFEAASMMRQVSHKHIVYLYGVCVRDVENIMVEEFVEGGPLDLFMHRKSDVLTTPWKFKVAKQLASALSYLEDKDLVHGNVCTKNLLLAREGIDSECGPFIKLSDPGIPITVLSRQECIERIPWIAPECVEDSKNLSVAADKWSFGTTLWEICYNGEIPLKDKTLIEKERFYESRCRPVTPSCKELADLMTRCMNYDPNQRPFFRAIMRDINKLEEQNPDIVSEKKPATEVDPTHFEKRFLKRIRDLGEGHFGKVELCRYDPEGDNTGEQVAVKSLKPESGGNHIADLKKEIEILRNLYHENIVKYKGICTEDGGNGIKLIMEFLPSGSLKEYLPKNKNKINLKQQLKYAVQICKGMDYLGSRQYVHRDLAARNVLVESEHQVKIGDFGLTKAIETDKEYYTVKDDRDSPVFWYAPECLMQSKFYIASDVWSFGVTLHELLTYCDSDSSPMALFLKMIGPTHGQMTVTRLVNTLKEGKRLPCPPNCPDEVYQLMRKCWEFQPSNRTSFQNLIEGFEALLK
Sequence of JAK2 (O60674 whole entry, species assumed): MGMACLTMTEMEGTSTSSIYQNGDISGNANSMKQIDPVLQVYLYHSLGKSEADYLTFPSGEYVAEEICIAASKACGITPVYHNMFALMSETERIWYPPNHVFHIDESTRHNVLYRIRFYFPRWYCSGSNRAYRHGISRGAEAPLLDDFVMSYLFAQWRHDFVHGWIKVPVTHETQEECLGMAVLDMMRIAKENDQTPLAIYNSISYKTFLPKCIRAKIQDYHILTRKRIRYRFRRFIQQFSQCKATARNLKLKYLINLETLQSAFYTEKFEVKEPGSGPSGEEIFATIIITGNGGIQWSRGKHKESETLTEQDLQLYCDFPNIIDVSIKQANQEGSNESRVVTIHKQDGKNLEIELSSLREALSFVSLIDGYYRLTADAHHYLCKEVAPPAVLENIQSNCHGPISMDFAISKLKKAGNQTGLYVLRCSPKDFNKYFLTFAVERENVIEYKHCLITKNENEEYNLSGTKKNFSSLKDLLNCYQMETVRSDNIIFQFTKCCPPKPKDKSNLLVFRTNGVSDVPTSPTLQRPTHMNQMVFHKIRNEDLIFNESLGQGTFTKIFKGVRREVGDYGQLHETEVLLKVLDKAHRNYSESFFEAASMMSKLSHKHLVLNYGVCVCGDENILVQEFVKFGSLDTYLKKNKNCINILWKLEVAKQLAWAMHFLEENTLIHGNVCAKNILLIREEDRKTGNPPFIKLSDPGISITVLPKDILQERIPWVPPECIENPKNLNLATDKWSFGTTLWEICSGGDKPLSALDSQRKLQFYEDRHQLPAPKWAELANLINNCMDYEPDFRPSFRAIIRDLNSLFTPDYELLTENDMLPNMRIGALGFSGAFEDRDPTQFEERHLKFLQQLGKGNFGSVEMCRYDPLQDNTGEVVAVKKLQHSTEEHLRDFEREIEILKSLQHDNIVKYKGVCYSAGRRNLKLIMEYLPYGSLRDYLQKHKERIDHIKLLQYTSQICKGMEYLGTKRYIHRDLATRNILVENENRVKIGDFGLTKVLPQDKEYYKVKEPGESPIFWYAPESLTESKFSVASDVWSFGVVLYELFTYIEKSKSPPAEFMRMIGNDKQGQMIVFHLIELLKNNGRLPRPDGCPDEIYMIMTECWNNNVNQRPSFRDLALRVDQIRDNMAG
Sequence of TYK2 (P29597 whole entry, species assumed): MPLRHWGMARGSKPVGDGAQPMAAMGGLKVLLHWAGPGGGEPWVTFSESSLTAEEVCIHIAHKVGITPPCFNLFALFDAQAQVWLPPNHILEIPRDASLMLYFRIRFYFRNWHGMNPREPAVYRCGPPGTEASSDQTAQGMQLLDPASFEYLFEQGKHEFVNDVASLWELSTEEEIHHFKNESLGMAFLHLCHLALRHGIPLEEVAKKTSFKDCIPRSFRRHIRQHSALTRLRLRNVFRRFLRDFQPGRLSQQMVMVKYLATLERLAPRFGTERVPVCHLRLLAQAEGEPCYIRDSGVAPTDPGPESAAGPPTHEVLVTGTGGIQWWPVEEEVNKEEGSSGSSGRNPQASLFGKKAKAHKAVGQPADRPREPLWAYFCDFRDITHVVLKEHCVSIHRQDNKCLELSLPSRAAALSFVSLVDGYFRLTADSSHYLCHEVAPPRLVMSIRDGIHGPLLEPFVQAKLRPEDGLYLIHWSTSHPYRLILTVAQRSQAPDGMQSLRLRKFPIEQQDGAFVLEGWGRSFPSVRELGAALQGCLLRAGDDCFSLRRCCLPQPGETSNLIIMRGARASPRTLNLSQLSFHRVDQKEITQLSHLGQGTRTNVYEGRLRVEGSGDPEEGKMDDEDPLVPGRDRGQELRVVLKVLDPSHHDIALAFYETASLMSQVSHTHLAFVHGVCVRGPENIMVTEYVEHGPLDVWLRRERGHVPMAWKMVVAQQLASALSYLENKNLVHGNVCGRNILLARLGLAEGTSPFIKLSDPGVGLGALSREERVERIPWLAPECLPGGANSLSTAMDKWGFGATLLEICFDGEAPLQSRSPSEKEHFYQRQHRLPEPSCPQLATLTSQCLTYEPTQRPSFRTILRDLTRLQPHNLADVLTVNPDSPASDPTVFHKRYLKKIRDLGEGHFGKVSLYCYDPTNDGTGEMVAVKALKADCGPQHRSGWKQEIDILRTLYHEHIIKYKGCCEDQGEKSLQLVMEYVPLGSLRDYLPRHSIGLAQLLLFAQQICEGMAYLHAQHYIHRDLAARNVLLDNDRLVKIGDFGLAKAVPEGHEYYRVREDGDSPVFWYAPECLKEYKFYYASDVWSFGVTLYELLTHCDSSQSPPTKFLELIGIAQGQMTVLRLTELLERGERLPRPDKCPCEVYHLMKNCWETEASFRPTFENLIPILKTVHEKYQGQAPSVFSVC

As to `CC[C@H](Cn1ccc2cnc(Nc3cnn(CC(=O)O[C@@H]4C[C@@H](C(=O)OC)N(C)C4)c3)nc21)C(C)C` [Compound 131, methyl (2S,4R)-4-(2-(4-((7-((S)-2-ethyl-3-methylbutyl)-7H-pyrrolo[2,3-d]pyrimidin-2-yl)amino)-1H-pyrazol-1-yl)acetoxy)-1-methylpyrrolidine-2-carboxylate], the IC50 against JAK1, on JAK2, at JAK3 and on TYK2 was below 100 nM each time.
On to `CCOC(=O)[C@@H]1C[C@@H](OC(=O)Cn2cc(Nc3ncc4ccn(C[C@@H](CC)C(C)C)c4n3)cn2)CN1C` [Compound 133, ethyl (2S,4R)-4-(2-(4-((7-((S)-2-ethyl-3-methylbutyl)-7H-pyrrolo[2,3-d]pyrimidin-2-yl)amino)-1H-pyrazol-1-yl)acetoxy)-1-methylpyrrolidine-2-carboxylate], for which the IC50 on JAK1, against JAK2, at JAK3 and on TYK2 was below 100 nM each time.
For the compound `CC[C@H](Cn1ccc2cnc(Nc3cnn(CC(=O)O[C@@H]4C[C@@H](C(=O)OC(C)C)N(C)C4)c3)nc21)C(C)C` [Compound 134, isopropyl (2S,4R)-4-(2-(4-((7-((S)-2-ethyl-3-methylbutyl)-7H-pyrrolo[2,3-d]pyrimidin-2-yl)amino)-1H-pyrazol-1-yl)acetoxy)-1-methylpyrrolidine-2-carboxylate], the IC50 at JAK1 was below 100 nM; on JAK2, 100 to 1000 nM; against JAK3 it was 100 to 1000 nM; against TYK2, 100 to 1000 nM.
`CC[C@H](Cn1ccc2cnc(Nc3cnn(CC(=O)O[C@@H]4C[C@@H](C(=O)O)N(C)C4)c3)nc21)C(C)C` [Compound 135, (2S,4R)-4-(2-(4-((7-((S)-2-ethyl-3-methylbutyl)-7H-pyrrolo[2,3-d]pyrimidin-2-yl)amino)-1H-pyrazol-1-yl)acetoxy)-1-methylpyrrolidine-2-carboxylic acid]: the IC50 at JAK1, at JAK2 and against TYK2 was 100 to 1000 nM throughout.

As usually defined, the IC50 is the concentration that inhibits the measured activity by half.
